The values that follow come from ChEMBL document CHEMBL5233266, “β-Carboline as a Privileged Scaffold for Multitarget Strategies in Alzheimer's Disease Therapy” (J Med Chem, 2021).

What is called IC50 is the point on the concentration scale where inhibition reaches its midpoint.

Test [1] concerns the target GABA-A receptor; anion channel. Kind of test: Displacement of [3H]flunitrazepam from GABAA (unknown origin ) receptor by radioligand binding assay. The test is classed as protein-complex assay, Homo sapiens. On the technique in general: Loss of bound radioactivity is the signal in a displacement assay; it reports binding, not function.
Test [2] deals with cGMP-specific 3',5'-cyclic phosphodiesterase (Homo sapiens, UniProt O76074). Kind of test: Inhibition of PDE5 (unknown origin).
The next test addresses Acetylcholinesterase (Homo sapiens, UniProt P22303). Description: Inhibition of AChE (unknown origin).

Acetylcholinesterase, sequence (P22303 whole entry): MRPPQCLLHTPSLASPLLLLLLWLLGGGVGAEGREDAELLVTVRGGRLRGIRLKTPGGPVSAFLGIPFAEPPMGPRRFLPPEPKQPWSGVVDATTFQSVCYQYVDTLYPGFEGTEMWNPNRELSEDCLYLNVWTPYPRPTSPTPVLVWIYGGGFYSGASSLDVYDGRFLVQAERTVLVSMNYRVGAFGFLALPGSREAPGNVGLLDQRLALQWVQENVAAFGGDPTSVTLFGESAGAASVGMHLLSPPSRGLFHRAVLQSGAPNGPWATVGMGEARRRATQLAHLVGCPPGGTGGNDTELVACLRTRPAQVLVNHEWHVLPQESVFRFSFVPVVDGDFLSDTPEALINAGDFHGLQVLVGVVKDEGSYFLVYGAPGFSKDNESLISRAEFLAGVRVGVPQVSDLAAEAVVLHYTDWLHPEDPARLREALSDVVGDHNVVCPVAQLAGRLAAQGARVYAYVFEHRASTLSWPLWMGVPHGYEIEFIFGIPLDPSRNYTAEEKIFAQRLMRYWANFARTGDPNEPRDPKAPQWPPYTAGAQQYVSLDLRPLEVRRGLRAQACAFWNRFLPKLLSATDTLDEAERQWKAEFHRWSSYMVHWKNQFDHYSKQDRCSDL

Compound `CC(C)(C)COC(=O)c1cc2c(cn1)[nH]c1ccccc12` registered a concentration for half-maximal inhibition (IC50) in test [1] of 0.75 µM.
Same read-out and setting: under `COC(=O)c1cc2c(cn1)[nH]c1ccc(O)cc12` stands 0.004 µM.
Compound `O=C1[C@H]2Cc3c([nH]c4ccccc34)[C@@H](c3ccc4c(c3)OCO4)N2C(=O)CN1[C@@H]1CCN(Cc2ncc[nH]2)C1` showed an IC50 in test [2] of 0.0008 µM. This lies in the sub-nanomolar range.
The compound `N#Cc1cc2c(cn1)[nH]c1ccccc12` registered an IC50 in test [1] of 0.003 µM.
In test [1], `CCOC(=O)c1ncc2[nH]c3cccc(OCc4ccccc4)c3c2c1COC` returned an IC50 of 0.0002 µM.
Consider `O=C1[C@H]2Cc3c([nH]c4ccccc34)[C@@H](c3ccc4c(c3)OCO4)N2C(=O)CN1[C@@H]1CCN(Cc2cccnc2)C1`, for which, in test [2], inhibition was half-maximal at 0.002 µM (IC50).
Same read-out and setting: under `CCN1C(=O)[C@@H]2Cc3c([nH]c4ccccc34)[C@@H](c3ccc(Cl)cc3)N2C1=O` stands 0.33 µM.
In the case of `O=C1C2Cc3c([nH]c4ccccc34)[C@@H](c3ccc4c(c3)OCO4)N2C(=O)CN1CCC1CCN(Cc2ccccc2)CC1` (some centres undefined), the IC50 is 0.15 µM in test [2] and 0.036 µM against Acetylcholinesterase.
Consider `CCCCN1CC(=O)N2[C@H](c3ccc(Br)cc3)c3[nH]c4ccccc4c3C[C@H]2C1=O`, for which the midpoint of inhibition in test [2], the IC50, lay at 0.01 µM.
The same measure, in the same setting: with `O=C1C2Cc3c([nH]c4ccccc34)C(c3ccc4c(c3)OCO4)N2C(=O)CN1Cc1ccccc1` (centres undefined) the figure was 0.003 µM; with `CCN1C(=O)[C@H]2Cc3c([nH]c4ccccc34)[C@@H](c3ccc(Br)s3)N2C1=O`, 0.17 µM; with `O=C1C2Cc3c([nH]c4ccccc34)C(c3ccc4c(c3)OCO4)N2C(=O)CN1C1CCCCC1` (centres undefined), 0.003 µM.
With `O=C1[C@@H]2Cc3c([nH]c4ccccc34)[C@@H](c3ccc4c(c3)OCO4)N2C(=O)CN1CCC1CCN(Cc2ccccc2)CC1`, the IC50 in test [2] was 1.5 µM; against Acetylcholinesterase it was 0.032 µM.
For `O=C(O)c1cc2c(cn1)[nH]c1ccccc12`, the half-maximal inhibitory concentration (IC50) in test [1] was determined as 31 µM. This counts as double-digit micromolar.
On the same count and under the same terms, with `CCOC(=O)c1ncc2[nH]c3cccc(OC(C)C)c3c2c1C` the figure was 0.0004 µM.
The compound `Cn1ccnc1CN1CC[C@@H](N2CC(=O)N3[C@H](c4ccc5c(c4)OCO5)c4[nH]c5ccccc5c4C[C@@H]3C2=O)C1` registered an IC50 in test [2] of 0.0008 µM. That is a sub-nanomolar value.
The compound `COc1ccc2c3ccnc(C)c3n(CC3CC(c4ccccc4)=NO3)c2c1` (centres undefined) came in with an IC50 on Acetylcholinesterase of 11 µM.
`CCCCN1CC2Cc3c([nH]c4ccccc34)C(c3ccc4c(c3)OCO4)N2C1=O` (centres undefined): the IC50 in test [2] stood at 0.06 µM.
Still for that read-out and setting: with `COC(=O)[C@@H]1Cc2c([nH]c3ccccc23)[C@@H](c2ccc(Cl)cc2)N1C(=O)CCl` the figure was 2.7 µM; with `CN1CCN(C(=O)c2ccc(-c3ccc(C(=O)N4CCc5c([nH]c6ccccc56)C4c4ccc5c(c4)OCO5)o3)cc2)CC1` (centres undefined), 0.008 µM.
Compound `CCCOC(=O)c1cc2c(cn1)[nH]c1ccccc12` came in with an IC50 in test [1] of 0.001 µM.
As to `COc1ccc([C@@H]2N[C@@H](C(=O)O)Cc3c2n(C)c2ccccc32)cc1OC`, the 50% inhibitory concentration (IC50) against Acetylcholinesterase turned out to be 2.5 µM.
In the case of `CCCCN1CC2Cc3c([nH]c4ccccc34)C(c3ccc(OC)cc3)N2C1=O` (centres undefined), the midpoint of inhibition in test [2], the IC50, lay at 0.06 µM. This counts as double-digit nanomolar.
On the same count and under the same terms, under `CCCCN1C(=O)[C@@H]2Cc3c([nH]c4ccccc34)[C@@H](c3ccc(Br)cc3)N2C1=O` stands 0.04 µM.
Still for that read-out and setting: with `CCN1C(=O)C2Cc3c([nH]c4ccccc34)C(c3ccc(OC)cc3)N2C1=O` (centres undefined) the figure was 0.003 µM.
As for `COc1ccc2c3c([nH]c2c1N)C(C)NCC3` (centres undefined), half-maximal inhibition at Acetylcholinesterase (IC50) was put at 2 µM.
For the compound `C#CCn1c2cc(OC)ccc2c2ccnc(C)c21`, the IC50 against Acetylcholinesterase is 1.9 µM.
In test [2], `COc1ccc(N2CC(=O)N3[C@H](c4ccc5c(c4)OCO5)c4[nH]c5ccccc5c4C[C@@H]3C2=O)cc1` had an IC50 of 0.016 µM.
As for `CC(C)N1CC(=O)N2C(Cc3c([nH]c4ccccc34)C2c2ccc3c(c2)OCO3)C1=O` (centres undefined), half-maximal inhibition in test [2] (IC50) was put at 0.003 µM. Against the preceding compound, the IC50 is about 5.3-fold lower.
On the same count and under the same terms, under `CCN1C(=O)[C@@H]2Cc3c([nH]c4ccccc34)[C@@H](c3ccc(Br)cc3)N2C1=O` stands 0.04 µM.
Compound `CCCCN1CC(=O)N2C(Cc3c([nH]c4ccccc34)C2c2ccc3c(c2)OCO3)C1=O` (centres undefined) came in with a half-inhibitory concentration (IC50) in test [2] of 0.003 µM. Against the preceding compound, the IC50 is about 13-fold lower.
`COc1ccc(C2c3[nH]c4ccccc4c3CC3C(=O)N(C4CCCCC4)C(=O)N32)cc1` (centres undefined) showed a 50% inhibitory concentration (IC50) in test [2] of 0.003 µM.
